# Target: T1, chimeric human H3 receptor (Homo sapiens, UniProt Q9Y5N1)
# T1 construct: rat Galpha-i2 (Gnai2, rat); made in house; host or cells: Sf9 insect cells (baculovirus); P2 membranes
# Assay: Chimeric human H3 receptor screening GTP binding assay (inhibition of histamine-stimulated GTP-gamma35S binding, Example 8)
# Format: biochemical
# Conditions: symbol ! in Ki; test compound 4 μM, 1 μM histamine; read-out: percent inhibition of agonist-induced GTP-gammaS binding to H3
# Procedure: This Example illustrates a representative screening assay for evaluating inhibition of histamine-stimulated GTP-gamma^35S binding. Such GTP binding activity can be used to identify H3 antagonists and inverse agonists. A compound analyzed in this assay is referred to herein as a “test compound,” and the initial identification of antagonists and inverse agonists is performed using a test compound concentration of 4 μM.
# Four independent baculoviral stocks (one directing the expression of the chimeric human H3 receptor and three directing the expression of each of the three subunits of a heterotrimeric G-protein) are used to infect a culture of Sƒ9 cells as described above. P2 membranes are prepared as described above, and are resuspended by Dounce homogenization (tight pestle) in GTP binding assay buffer (50 mM Tris pH 7.4, 120 mM NaCl, 5 mM MgCl2, 2 mM EGTA, 1 mg/ml BSA, 0.2 mg/ml bacitracin, 0.02 mg/ml aprotinin, 0.01 mg/ml saponin, 10 μM GDP) and added to assay tubes at a concentration of 35 μg protein/reaction tube. Non-radiolabeled test compounds are added to separate reactions at a concentration of 4 μM along with 1 μM histamine (agonist). Reactions are initiated by the addition of 125 pM GTP-gamma^35S with a final assay volume of 0.20 ml.
# After a 60-min incubation at room temperature, reactions are terminated by vacuum filtration over GF/C filters (pre-soaked in 50 mM Tris pH 7.4, 120 mM NaCl plus 0.1% BSA) followed by washing with ice-cold buffer (50 mM Tris pH 7.4, 120 mM NaCl). The amount of receptor-bound (and thereby membrane-bound) GTP-gamma^35S is determined by measuring the bound radioactivity, preferably by liquid scintillation spectrometry of the washed filters. Non-specific binding is determined using 10 uM GTP-gammaS and typically represents less than 5 percent of total binding. After subtraction of non-specific binding, data is expressed as percent inhibition of 1 μM histamine signal.
# Neutral antagonists are those test compounds that reduce the histamine-stimulated GTP binding activity towards, but not below, baseline levels. In contrast, in the absence of added histamine, inverse agonists reduce the GTP binding activity of the receptor-containing membranes below baseline. Any test compound that elevates GTP binding activity above baseline in the absence of added histamine in this assay is defined as having agonist activity.
# T1 sequence (Q9Y5N1 with tags, fused parts or gaps): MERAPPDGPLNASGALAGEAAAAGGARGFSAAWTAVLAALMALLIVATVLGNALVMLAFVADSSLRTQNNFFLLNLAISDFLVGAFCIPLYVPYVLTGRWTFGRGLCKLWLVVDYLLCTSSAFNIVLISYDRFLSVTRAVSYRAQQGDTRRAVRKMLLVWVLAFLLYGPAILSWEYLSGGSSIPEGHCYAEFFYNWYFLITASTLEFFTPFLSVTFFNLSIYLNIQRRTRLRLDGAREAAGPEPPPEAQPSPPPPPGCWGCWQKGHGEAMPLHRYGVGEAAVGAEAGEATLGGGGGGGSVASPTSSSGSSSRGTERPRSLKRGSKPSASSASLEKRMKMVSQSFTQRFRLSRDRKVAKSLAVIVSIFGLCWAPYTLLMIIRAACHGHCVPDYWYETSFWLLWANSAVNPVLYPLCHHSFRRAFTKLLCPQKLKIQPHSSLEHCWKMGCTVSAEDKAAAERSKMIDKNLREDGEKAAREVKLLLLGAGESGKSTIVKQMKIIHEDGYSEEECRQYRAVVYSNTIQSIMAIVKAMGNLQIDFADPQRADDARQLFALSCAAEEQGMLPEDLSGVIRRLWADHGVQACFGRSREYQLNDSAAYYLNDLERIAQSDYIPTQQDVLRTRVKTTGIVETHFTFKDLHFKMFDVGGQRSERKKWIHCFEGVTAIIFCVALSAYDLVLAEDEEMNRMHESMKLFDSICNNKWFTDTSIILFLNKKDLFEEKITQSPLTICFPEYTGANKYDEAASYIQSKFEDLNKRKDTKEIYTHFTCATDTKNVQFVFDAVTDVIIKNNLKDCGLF
row,inhibition at 4 µM [%],Structure (SMILES)
1,≥ 90,"CCn1nc(C)cc1C(=O)N1CCc2c(ncnc2N2CCN(C3CCC3)CC2)C1 [Compound 40, 4-(4-cyclobutylpiperazin-1-yl)-7-[(1-ethyl-3-methyl-1H-pyrazol-5-yl)carbonyl]-5,6,7,8-tetrahydropyrido[3,4-d]pyrimidine]"
2,≥ 90,"CC(C)c1ccc(C(=O)N2CCc3c(ncnc3N3CCN(C4CCC4)CC3)C2)cc1 [Compound 41, 4-(4-cyclobutylpiperazin-1-yl)-7-(4-isopropylbenzoyl)-5,6,7,8-tetrahydropyrido[3,4-d]pyrimidine]"
3,≥ 90,"CCC(=O)N1CCc2c(ncnc2N2CCN(C3CCC3)CC2)C1 [Compound 42, 4-(4-cyclobutylpiperazin-1-yl)-7-propionyl-5,6,7,8-tetrahydropyrido[3,4-d]pyrimidine]"
4,≥ 90,"CCCC(=O)N1CCc2c(ncnc2N2CCN(C3CCC3)CC2)C1 [Compound 43, 7-butyryl-4-(4-cyclobutylpiperazin-1-yl)-5,6,7,8-tetrahydropyrido[3,4-d]pyrimidine]"
5,≥ 90,"CCCCC(=O)N1CCc2c(ncnc2N2CCN(C3CCC3)CC2)C1 [Compound 44, 4-(4-cyclobutylpiperazin-1-yl)-7-pentanoyl-5,6,7,8-tetrahydropyrido[3,4-d]pyrimidine]"
6,≥ 90,"CC(C)CC(=O)N1CCc2c(ncnc2N2CCN(C3CCC3)CC2)C1 [Compound 45, 4-(4-cyclobutylpiperazin-1-yl)-7-(3-methylbutanoyl)-5,6,7,8-tetrahydropyrido[3,4-d]pyrimidine]"
7,≥ 90,"CC(C)CCC(=O)N1CCc2c(ncnc2N2CCN(C3CCC3)CC2)C1 [Compound 46, 4-(4-cyclobutylpiperazin-1-yl)-7-(4-methylpentanoyl)-5,6,7,8-tetrahydropyrido[3,4-d]pyrimidine]"
8,≥ 90,"O=C(CC1CCCC1)N1CCc2c(ncnc2N2CCN(C3CCC3)CC2)C1 [Compound 47, 4-(4-cyclobutylpiperazin-1-yl)-7-(cyclopentylacetyl)-5,6,7,8-tetrahydropyrido[3,4-d]pyrimidine]"
9,≥ 90,"O=C(CC1CCCCC1)N1CCc2c(ncnc2N2CCN(C3CCC3)CC2)C1 [Compound 48, 4-(4-cyclobutylpiperazin-1-yl)-7-(cyclohexylacetyl)-5,6,7,8-tetrahydropyrido[3,4-d]pyrimidine]"
10,≥ 90,"O=C(CCC1CCCC1)N1CCc2c(ncnc2N2CCN(C3CCC3)CC2)C1 [Compound 49, 4-(4-cyclobutylpiperazin-1-yl)-7-(3-cyclopentylpropanoyl)-5,6,7,8-tetrahydropyrido[3,4-d]pyrimidine]"
11,≥ 90,"O=C(Cc1ccccc1)N1CCc2c(ncnc2N2CCN(C3CCC3)CC2)C1 [Compound 50, 4-(4-cyclobutylpiperazin-1-yl)-7-(phenylacetyl)-5,6,7,8-tetrahydropyrido[3,4-d]pyrimidine]"
12,≥ 90,"COCCC(=O)N1CCc2c(ncnc2N2CCN(C3CCC3)CC2)C1 [Compound 51, 4-(4-cyclobutylpiperazin-1-yl)-7-(3-methoxypropanoyl)-5,6,7,8-tetrahydropyrido[3,4-d]pyrimidine]"
13,≥ 90,"O=C(C1CC1)N1CCc2c(ncnc2N2CCN(C3CCC3)CC2)C1 [Compound 52, 4-(4-cyclobutylpiperazin-1-yl)-7-(cyclopropylcarbonyl)-5,6,7,8-tetrahydropyrido[3,4-d]pyrimidine]"
14,≥ 90,"O=C(C1CCC1)N1CCc2c(ncnc2N2CCN(C3CCC3)CC2)C1 [Compound 53, 7-(cyclobutylcarbonyl)-4-(4-cyclobutylpiperazin-1-yl)-5,6,7,8-tetrahydropyrido[3,4-d]pyrimidine]"
15,≥ 90,"O=C(C1CCCC1)N1CCc2c(ncnc2N2CCN(C3CCC3)CC2)C1 [Compound 54, 4-(4-cyclobutylpiperazin-1-yl)-7-(cyclopentylcarbonyl)-5,6,7,8-tetrahydropyrido[3,4-d]pyrimidine]"
16,≥ 90,"O=C(C1CCCCC1)N1CCc2c(ncnc2N2CCN(C3CCC3)CC2)C1 [Compound 55, 4-(4-cyclobutylpiperazin-1-yl)-7-(cyclohexylcarbonyl)-5,6,7,8-tetrahydropyrido[3,4-d]pyrimidine]"

row,inhibition at 4 µM [%],Structure (SMILES)
1,≥ 90,"O=C(C1CCCCCC1)N1CCc2c(ncnc2N2CCN(C3CCC3)CC2)C1 [Compound 56, 4-(4-cyclobutylpiperazin-1-yl)-7-(cycloheptylcarbonyl)-5,6,7,8-tetrahydropyrido[3,4-d]pyrimidine]"
2,≥ 90,"O=C(C1CCCO1)N1CCc2c(ncnc2N2CCN(C3CCC3)CC2)C1 (centres unmarked) [Compound 57, 4-(4-cyclobutylpiperazin-1-yl)-7-(tetrahydrofuran-2-ylcarbonyl)-5,6,7,8-tetrahydropyrido[3,4-d]pyrimidine]"
3,≥ 90,"O=C(C1CCOC1)N1CCc2c(ncnc2N2CCN(C3CCC3)CC2)C1 (centres unmarked) [Compound 58, 4-(4-cyclobutylpiperazin-1-yl)-7-(tetrahydrofuran-3-ylcarbonyl)-5,6,7,8-tetrahydropyrido[3,4-d]pyrimidine]"
4,≥ 90,"CC(C)C(=O)N1CCc2c(ncnc2N2CCN(C3CCC3)CC2)C1 [Compound 59, 4-(4-cyclobutylpiperazin-1-yl)-7-isobutyryl-5,6,7,8-tetrahydropyrido[3,4-d]pyrimidine]"
5,≥ 90,"CCC(C)C(=O)N1CCc2c(ncnc2N2CCN(C3CCC3)CC2)C1 (centres unmarked) [Compound 60, 4-(4-cyclobutylpiperazin-1-yl)-7-(2-methylbutanoyl)-5,6,7,8-tetrahydropyrido[3,4-d]pyrimidine]"
6,≥ 90,"CCCC(C)C(=O)N1CCc2c(ncnc2N2CCN(C3CCC3)CC2)C1 (centres unmarked) [Compound 61, 4-(4-cyclobutylpiperazin-1-yl)-7-(2-methylpentanoyl)-5,6,7,8-tetrahydropyrido[3,4-d]pyrimidine]"
7,≥ 90,"O=C(/C=C/c1ccccc1)N1CCc2c(ncnc2N2CCN(C3CCC3)CC2)C1 [Compound 62, 4-(4-cyclobutylpiperazin-1-yl)-7-[(2E)-3-phenylprop-2-enoyl]-5,6,7,8-tetrahydropyrido[3,4-d]pyrimidine]"
8,≥ 90,"COc1ccc(C(=O)N2CCc3c(ncnc3N3CCN(C4CCC4)CC3)C2)cc1Cl [Compound 63, 7-(3-chloro-4-methoxybenzoyl)-4-(4-cyclobutylpiperazin-1-yl)-5,6,7,8-tetrahydropyrido[3,4-d]pyrimidine]"
9,≥ 90,"Cc1ccc(C)c(C(=O)N2CCc3c(ncnc3N3CCN(C4CCC4)CC3)C2)c1 [Compound 64, 4-(4-cyclobutylpiperazin-1-yl)-7-(2,5-dimethylbenzoyl)-5,6,7,8-tetrahydropyrido[3,4-d]pyrimidine]"
10,≥ 90,"COCCOCC(=O)N1CCc2c(ncnc2N2CCN(C3CCC3)CC2)C1 [Compound 65, 4-(4-cyclobutylpiperazin-1-yl)-7-[(2-methoxyethoxy)acetyl]-5,6,7,8-tetrahydropyrido[3,4-d]pyrimidine]"
11,≥ 90,"Fc1ccccc1CN1CCc2c(ncnc2N2CCN(C3CCC3)CC2)C1 [Compound 66, 4-(4-cyclobutylpiperazin-1-yl)-7-(2-fluorobenzyl)-5,6,7,8-tetrahydropyrido[3,4-d]pyrimidine]"
12,≥ 90,"Fc1cccc(CN2CCc3c(ncnc3N3CCN(C4CCC4)CC3)C2)c1 [Compound 67, 4-(4-cyclobutylpiperazin-1-yl)-7-(3-fluorobenzyl)-5,6,7,8-tetrahydropyrido[3,4-d]pyrimidine]"
13,≥ 90,"Fc1ccc(CN2CCc3c(ncnc3N3CCN(C4CCC4)CC3)C2)cc1 [Compound 68, 4-(4-cyclobutylpiperazin-1-yl)-7-(4-fluorobenzyl)-5,6,7,8-tetrahydropyrido[3,4-d]pyrimidine]"
14,≥ 90,"Cc1cccc(CN2CCc3c(ncnc3N3CCN(C4CCC4)CC3)C2)c1 [Compound 69, 4-(4-cyclobutylpiperazin-1-yl)-7-(3-methylbenzyl)-5,6,7,8-tetrahydropyrido[3,4-d]pyrimidine]"
15,≥ 90,"Cc1ccc(CN2CCc3c(ncnc3N3CCN(C4CCC4)CC3)C2)cc1 [Compound 70, 4-(4-cyclobutylpiperazin-1-yl)-7-(4-methylbenzyl)-5,6,7,8-tetrahydropyrido[3,4-d]pyrimidine]"
16,≥ 90,"Cn1ccnc1CN1CCc2c(ncnc2N2CCN(C3CCC3)CC2)C1 [Compound 71, 4-(4-cyclobutylpiperazin-1-yl)-7-[(1-methyl-1H-imidazol-2-yl)methyl]-5,6,7,8-tetrahydropyrido[3,4-d]pyrimidine]"

# Source: patent US20080051387A1, “TETRAHYDROPYRIDO[3,4-D]PYRIMIDINES AND RELATED ANALOGUES” (priority 2006, published 2008)
